Measurements reported in patent US20120035161A1, “Novel Compositions and Methods of Treating Diseases Using the Same” (CORRIDOR PHARMACEUTICALS, INC., priority 2006, published 2012).
Several values for one entry are separate records, joined by “and”; a condition that tells them apart may be missing. Identical values can stand only once.

Key:
TNF-α = assay: Model of LPS-mediated cytokine production, serum TNF-α; format: in vivo, CD1:ICR mice; details: pre-dose time course, 10 mg/kg, IV or IP
Method: (§1) Both ICI-685 and ICI-735 were formulated in water. For the time course study, both drugs were formulated at a concentration of 1 mg/ml and dosed 10 ml/kg to produce a dose of 10 mg/kg. For the dose-response study, drug was formulated at concentrations of 0.05, 0.2 and 0.5 mg/ml and dosed at a volume of 10 ml/kg to produce doses of 0.5, 2 and 5 mg/kg, respectively. Animals were dosed IV or IP.
CD1:ICR mice were obtained from Harlan (Indianapolis, Ind.) at 6 weeks of age. Animals were housed 5 per cage, kept on a 12 hr light dark cycle and fed food and water ad libitum. Animals were tested at 8-10 weeks of age.
(§2) Lipopolysaccharide (heat killed E. coli 0127:B5; Sigma Aldrich) was prepared in distilled water at a concentration of 0.025 mg/ml. LPS was dosed at a volume of 10 ml/kg (IP) to produce a final dose of 0.25 mg/kg (approximately 7.5 μg/mouse). Drugs were dosed prior to LPS administration as indicated elsewhere herein. Blood was collected by retro-orbital eye bleed 90 minutes after LPS administration, Serum was prepared from blood and TNF-α and IL-1β levels were measured by using the OPT-EIA mouse TNF-α and IL-1β ELISA kits (BD Biosciences) as per directions of the manufacturer.
The first study was designed to determine the optimal route of administration and the optimal pre-treatment time. Two pre-dose time course studies were conducted. The first (Study 1A) was conducted with 3 pre-dose time points (2, 6 and 18 hrs). The second was conducted at 0, 1 and 2 hr predose time points. For both studies, drug was dosed IP or IV.
Using data from the first study, a second study was conducted that was designed to measure dose-response activity of each compound. Compounds were tested at doses of […]., 2.0 and 5 mg/kg using the route and pre-treatment time that produced the best activity.
as §1, with “Compounds ICI-715, ICI-824, ICI-953” for “Both ICI-685”, “ICI-954” for “ICI-735”, “study,” for “study, both”, “drugs were” for “drug was”
as §2, with “mg/ml,” for “mg/ml.”, “[…]).” for “μg/mouse).”, “above.” for “elsewhere herein.”, “administration.” for “administration,”
The first study was designed to determine the optimal route of administration and the optimal pre-treatment time. One pre-dose time course was conducted (for all compounds) with compounds administered at 0, 1 and 2 hrs prior to LPS treatment. For both studies, drug was dosed IP or IV. The IP study and IV study were conducted on separate days.
Using data from the first study, a second study was conducted that was designed to measure dose-response activity of each compound. Compounds were tested at doses of 0.5, 2.0 and 5 mg/kg using the route and pre-treatment time that produced the best activity.

[1] = system: cryopreserved mixed gender human hepatocytes; assay: Hepatocyte stability assay; format: in vitro ADME; details: 5 μM test compound
Method: Test compounds (5 μM) were incubated with cryopreserved mixed gender human hepatocytes pooled from at least 3 donors. Cell viability of hepatocytes was assessed by a Trypan Blue assay prior to the initiation of the stability assay. The final hepatocyte cell density was 1.5×10^6 viable cells/mL, Samples were taken at 2 time points: 0 and 60 minutes. As positive controls, testosterone (20 μM) and 7-hydroxy-coumarin (100 μM) were incubated and sampled at 5 time points: 0, 15, 30, 60, and 120 minutes. Aliquots were removed and combined (50/50) with acetonitrile to terminate the reaction. Samples were mixed for 10 minutes and centrifuged. The supernatants were transferred to vial for analysis by HRMS. In this assay, both test compound and a des-glycine metabolite (M1) are quantified based on peak area response ratios.
The enzymatic activities of the human cryopreserved hepatocytes used in this study were verified in parallel by determining the disappearance of testosterone (expressed as half-life) and the formation of 7-hydroxycoumarin glucuronide and 7-hydroxycoumarin sulfate (expressed as a formation rate).

[2] = Phospholipidosis assay (LipidTox); format: cell-based; details: human
Method: (§3) More recently, fluorescent dyes have been utilized to assess phospholipidosis in a high throughput manner (Nioi et al., 2007, Toxicol. Sci. 99:162-173). In this assay, HepG2 cells are plated in MEM growth medium and allowed to incubate overnight. Cells are treated with test compounds that have been added to the assay medium (10% fetal bovine serum) containing LipidTox (fluorescent lipophilic dye). After 48 h incubation, cells are fixed and stained with Hoechst. Plates are scanned with an automated fluorescent microscope (Thermo Fisher Cellomics ArrayScan 4.5) and image analysis is used to quantitate cell number and phospholipid accumulation. Compounds are tested in triplicate at multiple concentrations. Three reference compounds, sertraline, perhexyline, and meclizine (high, medium, and low inducers of phospholipidosis, respectively) are included in each assay. The data is expressed as fold induction over background and the % of the positive control (sertraline), which is calculated using the following equation:
(§4) % positive control=100×(RFUcompound−RFUbackground)/(RFUsertaline−RFUbackground),
(§5) where RFU=Relative Fluorescence Unit

HepG2 cells = assay: Phospholipidosis assay (LipidTox); format: cell-based; details: human, 48 h
Method: as §3, §4, §5

In the case of NCC(=O)NCCN1CCN(CCCN2c3ccccc3Sc3ccc(C(F)(F)F)cc32)CC1 [ICI-735], the “inhibition of LPS-stimulated TNFα secretion” value (TNF-α) is reported as “inhibited”, the “Relative Level (%)” value ([1]; T = 0 minutes) is reported as 99.5% and 100.5% and the “Peak Areas” value ([1]; T = 60 minutes) is reported as 8.39E+06 and 8.79E+06. The “Relative Level (%)” value ([1]; T = 60 minutes) was 89.6% and 92.4%, the cytotoxicity at 48 h, 1 µM [2] was 0% and the cytotoxicity at 48 h, 3 µM [2] was 68%. The cytotoxicity at 48 h, 10 µM [2] was 100%, the cytotoxicity at 48 h, 30 µM [2] was 100% and the fold induction at 48 h, 1 µM [2] was 23. The fold induction at 48 h, 3 µM [2] was 6, the “% Positive Control” value (HepG2 cells; 1 μM) was 43% and the “% Positive Control” value (HepG2 cells; 3 μM) was 10%.
